≈ marks a conversion by molar mass, not a printed value.
Assays:
COX-2 = target: T1, COX-2 (Mus musculus, UniProt Q05769); assay: Evaluation of COX-2 activity: PGE2 formation in aspirin-treated, LPS-stimulated mouse peritoneal macrophages; assay type: cell-based
T1 sequence (Q05769 18-604): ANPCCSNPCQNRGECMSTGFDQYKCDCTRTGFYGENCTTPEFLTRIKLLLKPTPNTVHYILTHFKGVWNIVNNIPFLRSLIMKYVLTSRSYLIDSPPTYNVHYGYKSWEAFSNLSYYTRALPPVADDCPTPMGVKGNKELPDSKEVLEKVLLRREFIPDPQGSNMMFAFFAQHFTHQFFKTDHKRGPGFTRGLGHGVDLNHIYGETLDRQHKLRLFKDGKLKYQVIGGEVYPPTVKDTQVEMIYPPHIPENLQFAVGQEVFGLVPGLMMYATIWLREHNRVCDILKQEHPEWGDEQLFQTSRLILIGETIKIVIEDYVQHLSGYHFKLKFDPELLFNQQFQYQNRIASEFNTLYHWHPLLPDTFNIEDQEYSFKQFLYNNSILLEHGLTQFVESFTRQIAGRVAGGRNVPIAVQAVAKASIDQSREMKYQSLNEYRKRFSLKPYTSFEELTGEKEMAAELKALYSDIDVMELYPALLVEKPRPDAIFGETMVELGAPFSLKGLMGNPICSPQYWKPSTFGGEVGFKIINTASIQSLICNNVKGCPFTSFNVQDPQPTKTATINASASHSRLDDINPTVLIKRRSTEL
Procedure, shortened: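 PGE2 output, quantified by radio- or enzyme-immunoassay, was read after 10 min exposure of cells to compound with 10 μM arachidonic acid. Cells were mouse peritoneal macrophages, COX-1 knocked out with 500 μM aspirin and COX-2 induced by 10 μg/ml LPS over 16 h. IC50 derived from 4–5 concentrations.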

COX-1 = target: T2, COX-1 (Mus musculus, UniProt P22437); assay: Evaluation of COX-1 activity: PGE2 formation in mouse peritoneal macrophages without aspirin and LPS treatment; assay type: cell-based
T2 sequence (P22437 27-602): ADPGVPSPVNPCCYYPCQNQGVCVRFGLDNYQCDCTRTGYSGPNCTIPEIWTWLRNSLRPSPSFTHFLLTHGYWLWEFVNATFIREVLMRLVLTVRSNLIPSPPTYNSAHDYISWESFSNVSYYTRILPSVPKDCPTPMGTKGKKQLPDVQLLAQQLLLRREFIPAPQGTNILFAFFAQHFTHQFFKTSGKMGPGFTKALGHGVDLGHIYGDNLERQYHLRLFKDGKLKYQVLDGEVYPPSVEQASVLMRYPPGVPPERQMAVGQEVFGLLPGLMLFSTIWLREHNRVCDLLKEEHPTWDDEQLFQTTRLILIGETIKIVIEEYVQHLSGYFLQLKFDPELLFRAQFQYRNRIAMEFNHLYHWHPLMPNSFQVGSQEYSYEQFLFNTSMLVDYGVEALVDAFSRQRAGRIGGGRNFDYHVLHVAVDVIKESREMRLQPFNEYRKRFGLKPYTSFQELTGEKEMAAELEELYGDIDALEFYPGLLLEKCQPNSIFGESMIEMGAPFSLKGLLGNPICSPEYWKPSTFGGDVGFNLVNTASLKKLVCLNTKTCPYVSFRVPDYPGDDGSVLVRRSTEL
Procedure, shortened: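 Peritoneal macrophages from C57BL/6 mice, without aspirin or LPS treatment, were plated at 1×10^6 cells/ml and fixed 2 h at 37 °C. Cells were preincubated 10 min, then given 10 μM arachidonic acid plus compound for 10 min; PGE2 was measured by RIA or EIA. IC50 came from 4–5 concentrations.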

IC50, μg/ml COX-2 (COX-2) [µg/mL] | IC50, μg/ml COX-1 (COX-1) [µg/mL] | melting point [°C] | IC50 (COX-2; read-out: IC50, μg/ml COX-2 (converted)) [µM] | IC50 (COX-1; read-out: IC50, μg/ml COX-1 (converted)) [µM] | SMILES
0.03 (≈ 0.0656 µM) | 50 (≈ 109 µM) | 194 to 195 |  |  | CC1(C)OC(c2ccc(S(C)(=O)=O)c(Br)c2)=C(c2cc(F)cc(F)c2)C1=O [Example 345]
0.03 (≈ 0.0832 µM) | 20 (≈ 55.5 µM) | 175 to 176 |  |  | CC1(C)OC(c2ccc(S(C)(=O)=O)cc2F)=C(c2ccccc2)C1=O [Example 321]
0.02 (≈ 0.0507 µM) | 3 (≈ 7.6 µM) | 139 to 140 |  |  | CC1(C)OC(c2ccc(S(C)(=O)=O)cc2F)=C(c2cccc(Cl)c2)C1=O [Example 322]
0.003 (≈ 0.00758 µM) | 0.3 (≈ 0.758 µM) | 164 to 165 |  |  | CC1(C)OC(c2ccc(S(N)(=O)=O)c(F)c2)=C(c2cccc(Cl)c2)C1=O [Example 305]
0.03 (≈ 0.0801 µM) | 3 (≈ 8.01 µM) | 138 to 139 |  |  | Cc1cc(C2=C(c3cccc(F)c3)C(=O)C(C)(C)O2)ccc1S(C)(=O)=O [Example 378, 2,2-Dimethyl-4-(3-fluorophenyl)-5-{3-methyl-4-(methylsulfonyl)phenyl}-3(2H)-furanone]
0.3 (≈ 0.712 µM) | 90 (≈ 214 µM) | 154 to 155 |  |  | CC1(C)OC(c2ccc(S(C)(=O)=O)c(Br)c2)=C(c2ccccc2)C1=O [Example 341, 5-{3-Bromo-4-(methylsulfonyl)phenyl}-2,2-dimethyl-4-phenyl-3(2H)-furanone]
0.05 (≈ 0.121 µM) | 300 (≈ 727 µM) | 200 to 201 |  |  | CC1(C)OC(c2ccc(S(C)(=O)=O)c(Cl)c2)=C(c2cc(F)cc(F)c2)C1=O [Example 362]
0.2 (≈ 0.581 µM) | 3 (≈ 8.71 µM) | 149 to 150 |  |  | C[S+]([O-])c1ccc(C2=C(c3ccccc3)C(=O)C(C)(C)O2)cc1F (stereo not drawn) [Example 291, 2,2-dimethyl-5-{3-fluoro-4-(methylsulfinyl)phenyl}-4-phenyl-3(2H)-furanone]
0.03 (≈ 0.073 µM) | 0.05 (≈ 0.122 µM) | 105 to 106 |  |  | CC1(C)OC(c2ccc(S(C)(=O)=O)c(F)c2)=C(c2cccc(Cl)c2)C1=S [Example 385, 4-(3-Chlorophenyl)-2,2-dimethyl-5-{3-fluoro-4-(methylsulfonyl)phenyl}-(2H)-furan-3-thione]
0.03 (≈ 0.0757 µM) | 20 (≈ 50.5 µM) | 118 to 119 |  |  | CC1(C)OC(c2ccc(S(C)(=O)=O)cc2F)=C(c2cc(F)cc(F)c2)C1=O [Example 326]
0.009 (≈ 0.0228 µM) | 3 (≈ 7.6 µM) | 173 to 174 |  |  | CC1(C)OC(c2ccc(S(C)(=O)=O)c(Cl)c2)=C(c2ccc(F)cc2)C1=O [Example 360]
0.9 (≈ 2.13 µM) | 300 (≈ 710 µM) | 128 to 132 |  |  | CC1(C)OC(c2ccc(S(N)(=O)=O)c(Br)c2)=C(c2ccccc2)C1=O [Example 351, 5-{4-(Aminosulfonyl)-3-bromophenyl}-2,2-dimethyl-4-phenyl-3(2H)-furanone]
0.05 (≈ 0.126 µM) | 200 (≈ 505 µM) | 150 to 151 |  |  | CC1(C)OC(c2ccc(S(C)(=O)=O)cc2F)=C(c2cc(F)ccc2F)C1=O [Example 325]
0.02 (≈ 0.0486 µM) | 8 (≈ 19.5 µM) | 188 to 189 |  |  | CC1(C)OC(c2ccc(S(C)(=O)=O)c(Cl)c2)=C(c2cccc(Cl)c2)C1=O [Example 358]

Second part, the compound before the results:

SMILES | IC50, μg/ml COX-2 (COX-2) [µg/mL] | IC50, μg/ml COX-1 (COX-1) [µg/mL] | melting point [°C] | IC50 (COX-2; read-out: IC50, μg/ml COX-2 (converted)) [µM] | IC50 (COX-1; read-out: IC50, μg/ml COX-1 (converted)) [µM]
CCC1(C)OC(c2ccc(S(N)(=O)=O)cc2)=C(c2cccc(OC)c2)C1=O (stereo not drawn) [Example 236] | 0.0097 (≈ 0.025 µM) | 10.7 (≈ 27.6 µM) | 69 to 70 |  | 
CC1(C)OC(c2ccc(S(C)(=O)=O)c(F)c2)=C(c2c(F)cccc2F)C1=O [Example 283] | 0.7 (≈ 1.77 µM) | 90 (≈ 227 µM) | 113 to 115 |  | 
COc1cccc(C2=C(c3ccc(S(N)(=O)=O)cc3)OC(C)(C)C2=O)c1 [Example 135] | 0.055 (≈ 0.147 µM) | >10 | 259 to 260 |  | 
CC1(C)OC(c2ccc(S(N)(=O)=O)cc2)=C(c2ccc(Cl)c(Cl)c2)C1=O [Example 127] | 0.001 (≈ 0.00243 µM) | 0.12 (≈ 0.291 µM) | 208 to 209 |  | 
CC(C)c1cccc(C2=C(c3ccc(S(C)(=O)=O)cc3)OC(C)(C)C2=O)c1 [Example 86] | 0.03 (≈ 0.078 µM) | 30 (≈ 78 µM) | 83 to 84 |  | 
CC1(C)OC(c2ccc(S(C)(=O)=O)c(F)c2)=C(c2ccccc2)C1=O [Example 273] | 0.03 (≈ 0.0832 µM) | 20 (≈ 55.5 µM) | 190 to 191 |  | 
CC1(C)OC(c2ccc(S(C)(=O)=O)cc2)=C(c2ccc(-c3ccccc3)cc2)C1=O [Example 77] | 0.003 (≈ 0.00717 µM) | 5 (≈ 11.9 µM) | 150 to 153 |  | 
Cc1ccc(C2=C(c3ccc(S(C)(=O)=O)cc3)OC(C)(C)C2=O)s1 [Example 122] | 0.03 (≈ 0.0828 µM) | 3 (≈ 8.28 µM) | 141 to 142 |  | 
Cc1ccc(F)cc1C1=C(c2ccc(S(C)(=O)=O)cc2)OC(C)(C)C1=O [Example 94] | 0.05 (≈ 0.134 µM) | 5 (≈ 13.4 µM) | 159 to 160 |  | 
CC1(C)OC(c2ccc(S(C)(=O)=O)c(F)c2)=C(c2ccc(C(F)(F)F)cc2)C1=O [Example 286] | 0.03 (≈ 0.07 µM) | 5 (≈ 11.7 µM) | 134 to 135 |  | 
CC1(C)OC(c2ccc(S(C)(=O)=O)c(F)c2)=C(c2cc(F)cc(F)c2)C1=O [Example 285] | 0.03 (≈ 0.0757 µM) | 200 (≈ 505 µM) | 163 to 164 |  | 
CCC1(C)OC(c2ccc(S(C)(=O)=O)cc2)=C(c2ccc(OC)c(F)c2)C1=O (stereo not drawn) [Example 214] |  |  | 158 to 160 | 0.0742 | 7.42
CCC1(C)OC(c2ccc(S(N)(=O)=O)cc2)=C(c2ccsc2)C1=O (stereo not drawn) [Example 44, 5-{4-(Aminosulfonyl)phenyl}-2-ethyl-2-methyl-4-(3-thienyl)-3(2H)-furanone] | 0.101 (≈ 0.278 µM) | >10 | 120 to 121 |  | 
CS(=O)(=O)c1ccc(C2=C(c3cc(F)cc(F)c3)C(=O)C3(CCCC3)O2)cc1 [Example 256] | 0.03 (≈ 0.0742 µM) | 5 (≈ 12.4 µM) | 127 to 128 |  | 
CC1(C)OC(c2ccc(S(C)(=O)=O)cc2)=C(c2cccc([N+](=O)[O-])c2)C1=O [Example 6, 2,2-Dimethyl-5-{4-(methylsulfonyl)phenyl}-4-(3-nitrophenyl)-3(2H)-furanone] | 0.05 (≈ 0.129 µM) | 5 (≈ 12.9 µM) | 158 to 159 |  | 
CC1(C)OC(c2ccc(S(C)(=O)=O)cc2)=C(c2cc(Cl)cc(Cl)c2)C1=O [Example 75] | 0.03 (≈ 0.0729 µM) | 3 (≈ 7.29 µM) | 187 to 188 |  | 
CCCCc1ccc(C2=C(c3ccc(S(C)(=O)=O)cc3)OC(C)(C)C2=O)cc1 [Example 97] | 0.002 (≈ 0.00502 µM) | 5 (≈ 12.5 µM) | 84 to 85 |  | 
CC1(C)OC(c2ccc(S(C)(=O)=O)c(F)c2)=C(c2ccc(F)cc2F)C1=O [Example 281] | 0.1 (≈ 0.252 µM) | 10 (≈ 25.2 µM) | 183 to 184 |  | 
CS(=O)(=O)c1ccc(C2=C(c3cccc(Cl)c3)C(=O)C3(CCOCC3)O2)cc1 [Example 263] | 0.03 (≈ 0.0716 µM) | 50 (≈ 119 µM) | 96 to 99 |  | 

Reference: patent US6492416B1, “4,5-diaryl-3(2H)-furanone derivatives as cyclooxygenase-2 inhibitors” (Pacific Corporation, priority 1999, dated 2002)
